Where two headings read alike, the source gives them in different places.
How the values were obtained:
B-Raf = B-Raf (Homo sapiens (Human), UniProt P15056); test: KINOMEscan enzyme binding assay, B-Raf
Protocol: Kinase enzyme binding activities of compounds disclosed herein may be determined using a proprietary assay which measures active site-directed competition binding to an immobilized ligand (Fabian, M. A. et al., Nature Biotechnol., 2005, 23:329-336). These assays may be conducted by DiscoverX (formerly Ambit; San Diego, Calif.). The percentage inhibition produced by incubation with a test compound may be calculated relative to the non-inhibited control.

kinases = test: KinomeScan selectivity scores / number of hits; assay type: binding
Protocol: These assays may be conducted by DiscoverX (formerly Ambit; San Diego, Calif.). The percentage inhibition produced by incubation with a test compound may be calculated relative to the non-inhibited control.

[1] = Pharmacokinetics and colon distribution in rats; assay type: in vivo, male Wistar rats; conditions: for concentration at 0.5 h: time cell blank (0.5 hr per method)
Protocol: 30 male Wistar rats were divided into two groups: Group I (p.o.: 5 mg/kg) and Group II (i.v.: 0.25 mg/kg). […] From each rat, blood samples (approximately 120 μL) were collected from retro orbital plexus such that samples were obtained at pre-dose, 0.05, 0.13, 0.25, 0.5, 1, 2, 4, 8, and 24 hr (i.v.) and pre-dose, 0.5, 1, 2, 4, 6, 8, 12 and 24 hr (p.o.). Immediately after collection, plasma was harvested from blood by centrifugation and stored at −70° C. until analysis. Following collection of blood sample, the animals (Group I) were humanely euthanized by carbon dioxide asphyxiation. The total colon was isolated, flushed with cold phosphate buffer saline (pH 7.4) to remove contents and weighed. The total colon tissues homogenized with ice-cold phosphate buffered saline, pH 7.4. Buffer volume to be used for homogenization was twice the weight of tissue. All the samples were stored below −70° C. until bioanalysis. Total colon tissue homogenate volume was three times. Plasma and total colon tissue samples were quantified by LC-MS/MS method (LLOQ in plasma and total colon tissue=0.5 ng/mL).

CYP2C9 = CYP2C9 (Homo sapiens (Human), UniProt P11712); test: CYP450 time-dependent inhibition, CYP2C9; assay type: in vitro ADME
Sequence of CYP2C9 (P11712 whole entry): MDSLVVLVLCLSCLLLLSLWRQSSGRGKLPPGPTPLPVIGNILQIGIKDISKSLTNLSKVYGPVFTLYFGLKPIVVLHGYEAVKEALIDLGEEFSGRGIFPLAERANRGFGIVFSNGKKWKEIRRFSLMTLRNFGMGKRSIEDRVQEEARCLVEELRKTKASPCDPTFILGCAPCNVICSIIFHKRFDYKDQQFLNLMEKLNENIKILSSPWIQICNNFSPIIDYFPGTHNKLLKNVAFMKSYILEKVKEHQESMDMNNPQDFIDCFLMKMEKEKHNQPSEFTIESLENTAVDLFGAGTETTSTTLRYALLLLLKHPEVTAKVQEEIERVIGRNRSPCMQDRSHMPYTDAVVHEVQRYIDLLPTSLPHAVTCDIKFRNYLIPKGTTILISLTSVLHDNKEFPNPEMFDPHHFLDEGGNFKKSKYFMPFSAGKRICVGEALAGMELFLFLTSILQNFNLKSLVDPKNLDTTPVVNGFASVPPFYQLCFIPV
Protocol: CYP450 time-dependent inhibition (TDI) assays were performed with test compound at six test concentrations, 0.062 μM to 15 μM (n=2). The test compounds was pre-incubated for 30 minutes with pooled human hepatic microsomes in 0.1 M Tris buffer, pH 7.4, at 37° C. in the presence of cofactor NADPH. A parallel series of incubations (n=2) were prepared with no pre-incubation. Probe substrates were then added (with additional cofactor) and further incubated for the times specified. Concentrations of probe substrates used in the incubations have been optimised to maintain first order reaction conditions.
Reactions were terminated with acetonitrile containing analytical internal standard (carbamazepine), samples then centrifuged to remove microsomal protein and analysed using optimised LC/MS-MS conditions. The MS data were normalised to internal standard and compared to the appropriate solvent controls to determine the amount of metabolite formed from the probe substrate relative to the “uninhibited” controls. The results are quoted as % inhibition.
Variation in probe turnover between plate wells means that inhibition values recorded below 10-15% may not be significant.

Syk = Syk (Homo sapiens (Human), UniProt P43405); test: Syk enzyme inhibition (FRET); assay type: biochemical
Summary of the method: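 Z-LYTE FRET peptide assay: c-Src (3000 ng/mL) or Syk (2000 ng/mL) preincubated 2 h at room temperature with compound (4–0.004 μg/mL working solutions). Reaction was 1 h with peptide (8 μM solution) and ATP (800 μM c-Src, 60 μM Syk solutions), followed by 1 h protease development. Phosphorylation was read as the coumarin/fluorescein emission ratio.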

[2] = system: TNBS-induced colitis in mice; test: (C) TNBS-induced colitis in mice; assay type: in vivo, male BDF1 mice; conditions: for LP inflammation / Ulcer grade: 2 days
Protocol: Non-fasted, 10-12 week old, male BDF1 mice are dosed by oral gavage twice daily with either vehicle (5 mL/kg), reference item (Budesonide 2.5 mg/kg) or test compound (1 or 5 mg/kg) one day before (Day −1) stimulation of the inflammatory response by treatment with 2,4,6-trinitrobenzenesulphonic acid (TNBS) (15 mg/mL in 50% ethanol/50% saline). On Day 0 of the study TNBS (200 μL) is administered intra-colonically via a plastic catheter with BID dosing of the vehicle, reference or test compound continuing for 2 or 4 days. During the study animals are weighed every day and stool observations are made and recorded as a score, based on stool consistency. At the time of sacrifice on Day 2 (or Day 4) the large intestine is removed and the length and weight recorded. Sections of the colon are taken for histopathology scoring to determine disease severity.

[3] = male, Wistar, colon, po, rat, 5 mg/kg p.o., read-out: Mean concentration, Colon
[4] = male, Wistar, plasma, po, rat, 5 mg/kg p.o., read-out: Mean concentration, Plasma
[5] = male, Wistar, plasma, Rat, 0.25 mg/kg intravenous
[6] = male, Wistar, po, Rat, 5 mg/kg p.o., Plasma
[7] = male, Wistar, po, Rat, 5 mg/kg p.o., Total colon

Sequence of B-Raf (P15056 whole entry): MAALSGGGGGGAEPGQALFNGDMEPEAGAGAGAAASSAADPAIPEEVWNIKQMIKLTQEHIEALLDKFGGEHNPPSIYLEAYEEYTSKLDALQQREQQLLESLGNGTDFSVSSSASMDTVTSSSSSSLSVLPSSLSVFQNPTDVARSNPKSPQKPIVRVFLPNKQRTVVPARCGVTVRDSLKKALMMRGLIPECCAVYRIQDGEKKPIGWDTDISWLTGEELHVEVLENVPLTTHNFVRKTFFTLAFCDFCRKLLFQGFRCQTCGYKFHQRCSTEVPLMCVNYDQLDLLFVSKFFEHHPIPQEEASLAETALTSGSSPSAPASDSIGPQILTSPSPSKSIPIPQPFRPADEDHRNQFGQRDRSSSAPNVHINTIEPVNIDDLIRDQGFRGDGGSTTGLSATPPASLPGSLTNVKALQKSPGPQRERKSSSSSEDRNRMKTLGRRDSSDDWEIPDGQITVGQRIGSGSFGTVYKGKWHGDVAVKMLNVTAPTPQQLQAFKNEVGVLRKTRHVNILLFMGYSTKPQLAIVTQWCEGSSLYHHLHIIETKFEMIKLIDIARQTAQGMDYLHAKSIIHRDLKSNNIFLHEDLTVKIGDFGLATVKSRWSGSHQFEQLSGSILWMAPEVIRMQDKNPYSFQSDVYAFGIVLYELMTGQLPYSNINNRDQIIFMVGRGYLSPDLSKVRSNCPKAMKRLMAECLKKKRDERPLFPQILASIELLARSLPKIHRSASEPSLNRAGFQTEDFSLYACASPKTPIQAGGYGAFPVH

C#Cc1cc(Nc2nccc(Oc3ccc(NC(=O)Nc4cc(C(C)(C)C)nn4-c4ccc(C)cc4)c4ccccc34)n2)cc(C(=O)NCCOCCOCCOC)c1 [Example 2, 3-((4-((4-(3-(3-(tert-Butyl)-1-(p-tolyl)-1H-pyrazol-5-yl)ureido)naphthalen-1-yl)oxy)pyrimidin-2-yl)amino)-5-ethynyl-N-(2-(2-(2-methoxyethoxy)ethoxy)ethyl)-benzamide]
effect on the binding of B-Raf to its standard ligand (B-Raf): did not have any effect
KinomeScan S(1) number of hits (kinases; 50 nM): 0
KinomeScan S(10) number of hits (kinases; 50 nM): 8
KinomeScan S(35) number of hits (kinases; 50 nM): 32
KinomeScan S(1) number of hits (kinases; 500 nM): 4
KinomeScan S(10) number of hits (kinases; 500 nM): 39
KinomeScan S(35) number of hits (kinases; 500 nM): 92
Fpo ([1]; Rat, 5 mg/kg p.o., Plasma): 0.04%
concentration at 1 h [1, 3]: 1.9 ng/g
concentration at 2 h [1, 3]: 4 ng/g
concentration at 4 h [1, 3]: 339 ng/g
concentration at 6 h [1, 3]: 1860 ng/g
concentration at 8 h [1, 3]: 2000 ng/g
concentration at 12 h [1, 3]: 597 ng/g
concentration at 24 h [1, 3]: 53.9 ng/g
concentration at 0.5 h [1, 3]: 3.3 ng/g
concentration at 1 h [1, 4]: 0.9 ng/mL
concentration at 2 h [1, 4]: 0.6 ng/mL
concentration at 4 h [1, 4]: 2.7 ng/mL
concentration at 6 h [1, 4]: 1.7 ng/mL
concentration at 8 h [1, 4]: 0.6 ng/mL
concentration at 12 h [1, 4]: 0.7 ng/mL
concentration at 24 h [1, 4]: 1.8 ng/mL
concentration at 0.5 h [1, 4]: 0.8 ng/mL
AUC(0-inf) [1, 5]: 691 ng·h/mL
AUC(0-t) [1, 5]: 682 ng·h/mL
C0 [1, 5]: 5360 ng/mL
Vd [1, 5]: 0.3 L/kg
clearance [1, 5]: 6.3 mL/min/kg
half-life [1, 5]: 2.2 h
AUC(0-t) [1, 6]: 4.8 ng·h/mL
Cmax [1, 6]: 2.7 ng/mL
Tmax [1, 6]: 4 h
AUC(0-inf) [1, 7]: 15800 ng·h/mL
AUC(0-t) [1, 7]: 15500 ng·h/mL
Cmax [1, 7]: 2000 ng/mL
Tmax [1, 7]: 8 h
Mean concentration, Colon ([1]; rat, 5 mg/kg p.o., Pre-dose): 0.0 ng/g
Mean concentration, Plasma ([1]; rat, 5 mg/kg p.o., Pre-dose): 0.0 ng/mL
IC50 (CYP2C9; CYP2C9, 0 min preincubation): > 15 µM
IC50 (CYP2C9; CYP2C9, 30 min preincubation): > 15 µM
inhibition at 0 min, 15 µM (CYP2C9; human, pooled human liver microsomes, pH 7.4, CYP2C9, 0 min preincubation, 15 μM, read-out: 15 μM % Inh): 35%
inhibition at 30 min, 15 µM (CYP2C9; human, pooled human liver microsomes, pH 7.4, CYP2C9, 30 min preincubation, 15 μM, read-out: 15 μM % Inh): 37%
IC50 (Syk): 0.05 µM
LP inflammation ([2]; 1 mg/kg oral BID): 2.9 ± 0.3
Ulcer grade ([2]; 1 mg/kg oral BID): 3.5 ± 0.4
LP inflammation ([2]; 5 mg/kg oral BID): 2.2 ± 0.4
Ulcer grade ([2]; 5 mg/kg oral BID): 3.0 ± 0.5
ulcer grade and epithelial repair compared to the vehicle control (histopathology) ([2]; dosed orally at 5 mg/kg): marked improvements in ulcer grade and epithelial repair
inflammatory cell infiltrate in the reticular and lamina propria zones (histopathology) ([2]; oral dosing): marked reduction
